Measured values published in patent US5262439A (priority 1992, dated 1993).
Values belong to the molecule of their own block, whether it stands above or below them.

Key:
LDL [1] = assay: Inhibition of oxidative modification of LDL, compound present during 24 hour incubation; assay type: cell-based
[2] = system: LDL incubated with endothelial cells (EC); assay: Macrophage degradation of LDL previously incubated with pretreated endothelial cells (biological modification); assay type: cell-based; conditions: Set A, 3 hours at 37° C., LDL 24 hours
Method: (§1) Then the cells were thoroughly washed to remove any extracellular inhibitors. Specifically, they were washed three times with 3 ml of F-10 containing 10% fetal calf serum and then incubated with labeled LDL for an additional 24 hours. […] The values given are from a typical experiment from three or more separate experiments.

[3] = Hydrolysis to free probucol; assay type: physicochemical
Source text: A particularly preferred embodiment of the present invention is a class of dicarboxylic acid esters of probucol compounds which can be dissolved as sodium or potassium salts.
(§2) The product was purified by silicic acid column chromatography using increasing amounts of ether in hexane. The purified product gave a single spot on TLC (Rf 0.18) distinct from the parent compound (Rf 0.68). Upon alkaline hydrolysis, the compound yielded free probucol.

endothelial cells [4] = assay: Uptake, retention and release of probucol by endothelial cells incubated with ^14 C-labeled diglutaryl probucol; assay type: cell-based
Method: (§3) Nevertheless, after two subsequent incubations with LDL at 100 μg/ml for 24 hours each, 30-45% of the incorporated radioactivity was still associated with the cells. […] Thus, cells enriched in probucol, also released the antioxidant into the medium which may offer additional protection against oxidation. The rate of release of probucol from cells was not followed in these studies.

macrophages = assay: Uptake of ^14 C-labeled water-soluble derivative by macrophages; assay type: cell-based, mouse; conditions: for Cell associated ^14 C-radioactivity: 3 hours at 37° C.
Method: (§4) The cells were then washed three times with DME. […] The cells were dissolved in 1 ml of 0.01% Triton X-100 before the determination of radioactivity. Values for macrophages represent averages of duplicate determinations from one of two separate trials. Values for endothelial cells are from four individual cell incubations.

LDL [5] = assay: Subsequent copper modification of LDL recovered from pretreated endothelial cells; assay type: biochemical
Method: as §3

endothelial cells [6] = assay: Uptake of ^14 C-labeled water-soluble derivative by endothelial cells; assay type: cell-based; conditions: 5 nmol added, 3 hours at 37° C., four individual cell incubations
Method: as §4

[7] = system: LDL incubated with endothelial cells (EC); assay: Ability of endothelial cells (EC) to induce LDL oxidation after pretreatment (TBARS); assay type: cell-based; conditions: Set A, 3 hours at 37° C., LDL 24 hours
Method: as §1

Solubility = assay type: physicochemical
Method: as §2
More than 96% of the labeled derivative readily went into the solution as the sodium salt and when incubated with macrophages was effectively taken up by the cells.

[8] = system: LDL incubated with mouse peritoneal macrophages; assay: Macrophage degradation of LDL previously incubated with pretreated macrophages (biological modification); assay type: cell-based
Method: (§5) After 48 hours the cells were washed 3 times with 3 ml of Ham's F-10 and then subjected to incubation with ^125 I-LDL (1100 μg/ml) in 2 ml of Ham's F-10 for 20 hours. TBARS and subsequent macrophage degradation were determined. The results are averages from a triplicate determination from a representative set.
(§6) After several washings with Ham's F-10, the cells were then incubated with 200 μg of ^125 I-LDL in 2 ml. of Ham's F-10 for 24 hours. […] However, because the probucol was obviously not in solution and might remain absorbed to the cell surface even after washing, it is possible that residual probucol on the cell surface accounted for the apparent protection during the second incubation, i.e., probucol from the cell surface might transfer into the LDL during the first part of the second incubation.
as §1

[9] = system: LDL incubated with mouse peritoneal macrophages; assay: Ability of macrophages to oxidize LDL after preincubation with probucol or diglutaryl probucol (TBARS); assay type: cell-based
Method: as §5, §6, §1

[10] = system: LDL incubated with endothelial cells; assay: Oxidation of LDL recovered from the medium of diglutaryl probucol-pretreated endothelial cells; assay type: cell-based; conditions: endothelial cells preincubated with 25 nmol for 3 hours
Method: as §3

LDL [11] = conditions: cited from earlier work
[12] = cited from earlier work
endothelial cells [13] = conditions: cited from earlier work
rat = conditions: given orally for some time before tying off a renal artery; cited from earlier work
[14] = system: LDL receptor-deficient rabbits; conditions: cited from earlier work
[15] = Set B, macrophages pretreated with 10 μM, 3 hours at 37° C., LDL 24 hours
[16] = Set B, macrophages pretreated with 20 μM, 3 hours at 37° C., LDL 24 hours
[17] = Set B, macrophages pretreated with 30 μM, 3 hours at 37° C., LDL 24 hours
[18] = EC pretreated with 100 μM (probucol in ethanol)
[19] = macrophages pretreated with 500 nmol/ml probucol in ethanol, 48 hours, then LDL

- Hydrolysis in the course of incubation ([3]; 24 hour incubation, medium): almost completely hydrolyzed
- Hydrolysis in aqueous solution ([3]; sodium salt in aqueous solution): slow hydrolysis
- Incorporated radioactivity still associated with the cells (endothelial cells [4]; 50-200 nmol, after two subsequent incubations with LDL at 100 μg/ml for 24 hours each): 30-45%
- Cell associated radioactivity in the form of the precursor, probucol diglutarate (macrophages; at 60 minutes): about half
- Cell associated ^14 C-radioactivity (macrophages; macrophages, 5 nmol added): 2.5 nmol
- Cell associated ^14 C-radioactivity (macrophages; macrophages, 10 nmol added): 3.7 nmol
- Cell associated ^14 C-radioactivity (macrophages; macrophages, 15 nmol added): 4.2 nmol
- Cell associated ^14 C-radioactivity (macrophages; macrophages, 20 nmol added): 5.2 nmol
- Cell associated ^14 C-radioactivity (macrophages; macrophages, 25 nmol added): 6.5 nmol
- Added radioactivity associated with the cells (macrophages; macrophages, after 2 hours): 25-30%
- Cell associated ^14 C-radioactivity (endothelial cells [6]): 1.9 ± 0.14 nmol
- Solubility in organic solvents (Solubility; acid form): soluble in organic solvents
- Labeled derivative going into solution (Solubility; as the sodium salt): More than 96%
Compound: CC(C)(Sc1cc(C(C)(C)C)c(OC(=O)CCCC(=O)O)c(C(C)(C)C)c1)Sc1cc(C(C)(C)C)c(OC(=O)CCCC(=O)O)c(C(C)(C)C)c1 [diglutaryl probucol, probucol diglutarate]
- inhibition at 2.5 µM (LDL [1]): > 50%
- Macrophage degradation ([2]; EC pretreated with 25 μM): 1.5 μg/5 h per mg cell protein
- Macrophage degradation ([2]; EC pretreated with 50 μM): 1.3 μg/5 h per mg cell protein
- Release of free probucol into the medium (endothelial cells [4]; endothelial cells incubated with 50-200 nmol, 24 hour incubation after washings): considerable release of free probucol into the medium
- Amount associated with the cells (macrophages; macrophages, after 2 hours): 2.5-6.5 nmol of probucol/~40 μg of cell protein
- Modification of recovered LDL upon subsequent incubation with 5 μM copper (LDL [5]; endothelial cells preincubated with 25 nmol for 3 hours): readily modified
- Modification of recovered LDL upon subsequent incubation with 5 μM copper (LDL [5]; endothelial cells preincubated with 50-200 nmol): resistant to modification
- TBARS ([7]; EC pretreated with 25 μM): 12.1 nmol/mg protein
- TBARS ([7]; EC pretreated with 50 μM): 6.5 nmol/mg protein
- Solubility in sodium bicarbonate solution (Solubility; sodium bicarbonate solution, after removal of organic solvent): can be dissolved in sodium bicarbonate solution
- Macrophage degradation [8, 15]: 2.2 μg/5 h per mg cell protein
- Macrophage degradation [8, 16]: 1.6 μg/5 h per mg cell protein
- Macrophage degradation [8, 17]: 1.4 μg/5 h per mg cell protein
- TBARS [9, 15]: 5.3 nmol/mg protein
- TBARS [9, 16]: 4.1 nmol/mg protein
- TBARS [9, 17]: 3.3 nmol/mg protein
- Inhibition of LDL modification by pretreated cells ([9]; concentrations as low as 10 μM, 3 hours pretreatment): inhibited the modification completely
- Oxidation of LDL recovered from the medium [10]: absence of oxidation

- Probucol released into the medium (endothelial cells [4]; 24 hour incubation with LDL, 50-200 nmol diglutaryl probucol): about 7 nmol
- Probucol incorporated into the cells (endothelial cells [4]; endothelial cells, 50-200 nmol diglutaryl probucol): more than 15 nmol
- Solubility in medium (Solubility; 500 nmol/ml added in ethanol, medium grossly milky): very limited solubility
Compound: CC(C)(Sc1cc(C(C)(C)C)c(O)c(C(C)(C)C)c1)Sc1cc(C(C)(C)C)c(O)c(C(C)(C)C)c1 [probucol, 4,4'-(isopropylidenedithio) bis(2,6-di-tert-butylphenol), reference compound]
- Oxidative modification of LDL (LDL [11]): block oxidative modification of LDL
- Macrophage degradation [2, 18]: 6.4 μg/5 h per mg cell protein
- Solubility in lipid [12]: highly lipid soluble
- Solubility in water ([12]; water): almost insoluble in water
- Incorporation into endothelial cells (endothelial cells [13]; 50 μM probucol, 24 h): less than 1 μg of probucol/10^6 cells
- Rate of entrance into cells in culture (endothelial cells [13]; cells in culture): slow
- TBARS [7, 18]: 42.5 nmol/mg protein
- Macrophage degradation [8, 19]: 2.1 μg/5 h per mg cell protein
- Post-perfusion injury in the kidney (rat): can limit the post-perfusion injury in the kidney
- Progression of atherosclerosis [14]: slow the progression of atherosclerosis
- LDL modification by cells as compared to control cells not pretreated ([9]; cells preincubated with probucol 500 nmol/ml): modified LDL poorly as compared to control cells
- TBARS [9, 19]: 11.2 nmol/mg protein
